In data set [1] the test system is Mycobacterium tuberculosis. The experiment in a line: In vivo anti-tubercular activity against Mycobacterium tuberculosis H37Ra transfected with TYOK plasmid infected in BALB/c mouse assessed as increase in ratio of RLU on day 3 to RLU on day 1 at 10 mg/kg/day administered QD for 3 days relative to control. In kind it is functional.
Data set [2] deals with Mycobacterium tuberculosis. The experiment in a line: Antitubercular activity against Mycobacterium tuberculosis H37Ra transfected with TYOK plasmid assessed as relative light units after 4 days by selectable marker-free autoluminescent assay. The data set is classed as functional. The note with it: 96 h.
A short description of data set [3]: Cmax in Sprague-Dawley rat at 2 mg/kg, iv by LC/MS analysis. In kind it is ADME, organism-based. On the set-up: dose 2 mg/kg, route intravenous. To be noted: in vivo.
Data set [4] is described as follows: Oral bioavailability in Sprague-Dawley rat at 10 mg/kg by LC/MS analysis. To be noted: in vivo. The data set is classed as ADME, organism-based.
A short description of data set [5]: Tmax in Sprague-Dawley rat at 2 mg/kg, iv by LC/MS analysis. The data set is classed as ADME, organism-based. To be noted: in vivo.
Data set [6] deals with Mycobacterium tuberculosis. The experiment in a line: In vivo anti-tubercular activity against Mycobacterium tuberculosis H37Ra transfected with TYOK plasmid infected in BALB/c mouse assessed as ratio of RLU on day 3 to RLU on day 1 at 10 mg/kg/day administered QD for 3 days. In kind it is functional.
Data set [7] in a line: AUC (0 to infinity) in Sprague-Dawley rat at 10 mg/kg, administered through oral gavage by LC/MS analysis. To be noted: in vivo. In kind it is ADME, organism-based. On the set-up: dose 10 mg/kg, time infinity, route oral.
Data set [8] can be described thus: AUC (0 to infinity) in Sprague-Dawley rat at 2 mg/kg, iv by LC/MS analysis. In kind it is ADME, organism-based. Further details: dose 2 mg/kg, time infinity, route intravenous. To be noted: in vivo.
Data set [9] deals with Mycobacterium tuberculosis. The experiment in a line: In vivo anti-tubercular activity against Mycobacterium tuberculosis H37Ra transfected with TYOK plasmid infected in BALB/c mouse assessed as ratio of RLU on day 3 to RLU on day 1 at 40 mg/kg/day administered QD for 3 days. The data set is classed as functional.
Data set [10] can be described thus: Clearance in Sprague-Dawley rat at 10 mg/kg, administered through oral gavage by LC/MS analysis. The data set is classed as ADME, organism-based. To be noted: in vivo.
Data set [11] is described as follows: Clearance in Sprague-Dawley rat at 2 mg/kg, iv by LC/MS analysis. The data set is classed as ADME, organism-based. The note with it: in vivo.
The nature of data set [12]: Tmax in Sprague-Dawley rat at 10 mg/kg, administered through oral gavage by LC/MS analysis. The note with it: in vivo. The data set is classed as ADME, organism-based.
The test system of data set [13] is Mycobacterium tuberculosis. In words: In vivo anti-tubercular activity against Mycobacterium tuberculosis H37Ra transfected with TYOK plasmid infected in BALB/c mouse assessed as ratio of RLU on day 3 to RLU on day 1 at 2.5 mg/kg/day administered QD for 3 days. In kind it is functional.
Data set [14] in a line: Cytotoxicity against African green monkey Vero cells assessed as reduction cell survival rate after 72 hrs by CCK8 assay. In kind it is toxicity, cell-based, Chlorocebus sabaeus. For orientation: Tetrazolium assays rely on reduction of a dye to a coloured formazan, in cell work by metabolically active cells.
Data set [15] is described as follows: Half life in Sprague-Dawley rat at 10 mg/kg, administered through oral gavage by LC/MS analysis. The data set is classed as ADME, organism-based. The note with it: in vivo.
Data set [16] is described as follows: Cmax in Sprague-Dawley rat at 10 mg/kg, administered through oral gavage by LC/MS analysis. In kind it is ADME, organism-based. Further details: dose 10 mg/kg, route oral. The note with it: in vivo.
Data set [17] is described as follows: Half life in Sprague-Dawley rat at 2 mg/kg, iv by LC/MS analysis. In kind it is ADME, organism-based. To be noted: in vivo.
The test system of data set [18] is Mycobacterium tuberculosis. In words: In vivo anti-tubercular activity against Mycobacterium tuberculosis H37Ra transfected with TYOK plasmid infected in BALB/c mouse assessed as decrease in ratio of RLU on day 3 to RLU on day 1 administered QD for 3 days. In kind it is functional, organism-based.
Data set [19] can be described thus: Solubility of the compound. The data set is classed as physicochemical.

The structures appear in SMILES notation. ≈ marks a conversion by molar mass, not a printed value. A value given as a limit tells only on which side of the number the result lay.

For the compound `NNC(=O)c1ccncc1` [ISONIAZID], in data set [1], the “fold change (FC)” value stood at 1.25. In addition, the minimum inhibitory concentration (MIC) in data set [2] was determined as 0.1 µg/mL (≈ 0.729 µM).

Consider `CO[C@H]1/C=C/O[C@@]2(C)Oc3c(C)c(O)c4c(O)c(c(/C=N/N5CCN(C)CC5)c(O)c4c3C2=O)NC(=O)/C(C)=C\C=C\[C@H](C)[C@H](O)[C@@H](C)[C@@H](O)[C@@H](C)[C@H](OC(C)=O)[C@@H]1C` [RIFAMPIN], for which the minimum inhibitory concentration (MIC) in data set [2] is 0.003 µg/mL (≈ 0.00365 µM).

Turning to `CCc1nc2ccc(Cl)cn2c1C(=O)NCc1ccc(N2CCC(c3ccc(OC(F)(F)F)cc3)CC2)cc1` [TELACEBEC], the minimum inhibitory concentration (MIC) in [2] is 0.003 µg/mL (≈ 0.00539 µM).

In the case of `Cc1nn2ccc(=O)[nH]c2c1C(=O)NCc1ccc(N2CCC(c3ccc(OC(F)(F)F)cc3)CC2)cc1`, the MIC in data set [2] was greater than 30 µg/mL.

Turning to `Cc1ccc2[nH]c(C)c(C(=O)NCc3ccc(N4CCC(c5ccc(OC(F)(F)F)cc5)CC4)cc3)c2c1`, in data set [2], the minimal inhibitory concentration (MIC) was found to be 10 µg/mL (≈ 19.2 µM).

`Cc1cn2nc(C)c(C(=O)NCc3ccc(N4CCC(c5ccc(OC(F)(F)F)cc5)CC4)cc3)c2s1`: the Cmax is 1720 ng/mL in [3] and 373 ng/mL in data set [16]. Further, the bioavailability in data set [4] worked out at 41.7%. The Tmax was 4.98 min in data set [5] and 5 h in data set [12]. Also, the values for the Ratio in data set [6], in [9] and in [13] were 0.91, 0.36 and 1.05, respectively. In addition, the total exposure AUC(0-inf) in data set [7] was 8560 ng·h/mL; in data set [8], 4110 ng·h/mL. Further, the CL/F in data set [10] was 20.2 mL/min/kg. In data set [11], this compound gave a clearance of 8.17 mL/min/kg. Further, the IC50 at 72 h in [14] was greater than 100 µM. The half-life in data set [15] was 13.4 h; in data set [17], 14.1 h. Moreover, the MIC in data set [2] is 0.03 µg/mL (≈ 0.0568 µM). Also, the Activity result in data set [18] is “Dose-dependent effect”.

Turning to `Cc1ccn2nc(C)c(C(=O)NCc3ccc(N4CCC(c5ccc(OC(F)(F)F)cc5)CC4)cc3)c2n1`, in data set [2], the minimum inhibitory concentration (MIC) is greater than 30 µg/mL.

As to `Cc1nc2scc(C)n2c1C(=O)NCc1ccc(N2CCC(c3ccc(OC(F)(F)F)cc3)CC2)cc1`, the solubility entry in [19] is “Insoluble”. The half-inhibitory concentration (IC50) at 72 h in [14] is greater than 100 µM. For the same compound, in [2], the MIC was found to be 1 µg/mL (≈ 1.89 µM).

Take `Cc1nc2sccn2c1C(=O)NCc1ccc(N2CCC(c3ccc(OC(F)(F)F)cc3)CC2)cc1`: in [14], the half-maximal inhibitory concentration (IC50) at 72 h is greater than 100 µM. For the same compound, in [2], the minimal inhibitory concentration (MIC) turned out to be 0.03 µg/mL (≈ 0.0583 µM).

As for `Cc1ccc2oc(C)c(C(=O)NCc3ccc(N4CCC(c5ccc(OC(F)(F)F)cc5)CC4)cc3)c2c1`, the MIC in data set [2] is greater than 30 µg/mL.

In the case of `Cc1nn2ccsc2c1C(=O)NCc1ccc(N2CCC(c3ccc(OC(F)(F)F)cc3)CC2)cc1`, the IC50 at 72 h in data set [14] is greater than 100 µM. In addition, the minimal inhibitory concentration (MIC) in data set [2] worked out at 0.3 µg/mL (≈ 0.583 µM).

On to `Cc1nn2c(C)csc2c1C(=O)NCc1ccc(N2CCC(c3ccc(OC(F)(F)F)cc3)CC2)cc1`, for which, in data set [14], the half-maximal inhibitory concentration (IC50) at 72 h is greater than 100 µM. Moreover, in data set [2], the MIC is 0.1 µg/mL (≈ 0.189 µM).

For `Cc1cn2c(C(=O)NCc3ccc(N4CCC(c5ccc(OC(F)(F)F)cc5)CC4)cc3)c(C)nc2s1`, the solubility entry in [19] is “Insoluble”. For the same compound, the IC50 at 72 h in [14] was greater than 100 µM. In data set [2], the minimum inhibitory concentration (MIC) amounted to 0.01 µg/mL (≈ 0.0189 µM).

A word on the MIC: it is the lowest concentration that inhibits growth of the organism. A word on the Cmax: it is the highest concentration seen after dosing. A word on the bioavailability: it is dose-corrected exposure relative to a reference, in per cent. Usually Tmax stands for the time from dosing to the highest level. A word on the AUC(0-inf): it is the area under the concentration-time curve extrapolated to infinity. Broadly, the CL/F is the apparent clearance, not corrected for the fraction that reaches the circulation. Broadly, the clearance is the volume of plasma or blood freed of the substance per unit of time. For orientation: IC50 means the concentration that inhibits the measured activity by half. In general, half-life refers to the time needed for the level to fall by half in the phase considered.

(Values after ChEMBL document CHEMBL3868613, “Discovery of new chemical entities as potential leads against Mycobacterium tuberculosis” (Bioorg Med Chem Lett, 2016).)
